Results on 2 compounds are retold here after ChEMBL document CHEMBL4261637, “Discovery of a non-toxic [1,2,4]triazolo[1,5-a]pyrimidin-7-one (WS-10) that modulates ABCB1-mediated multidrug resistance (MDR)” (Bioorg Med Chem, 2018).

SMILES strings stand for the structures. Activity calls are given as the source filed them. The calls are words filed in the database; no cut-off is given here.

Data set [1] deals with HEK-293T. Put plainly: Potentiation of paclitaxel-induced cytotoxicity in human HEK293T/NC cells assessed as fold reduction in paclitaxel IC50 at 10 uM after 72 hrs by MTT assay relative to paclitaxel. It is filed as functional.
In data set [2] the test system is HEK-293T. Put plainly: Potentiation of paclitaxel-induced cytotoxicity in human HEK293T/NC cells assessed as fold reduction in paclitaxel IC50 at 20 uM after 72 hrs by MTT assay relative to paclitaxel. The data set is classed as functional. Background: Tetrazolium assays rely on reduction of a dye to a coloured formazan, in cell work by metabolically active cells.

The test system of data set [3] is SW-620. In words: Potentiation of cisplatin-induced cytotoxicity in human SW620 cells assessed as fold reduction in cisplatin IC50 at 10 uM after 72 hrs by MTT assay relative to cisplatin alone. It is filed as functional.
The subject of data set [4] is SW-620. In words: Potentiation of doxorubicin-induced cytotoxicity in human SW620 cells assessed as fold reduction in doxorubicin IC50 at 10 uM after 72 hrs by MTT assay relative to doxorubicin alone. The data set is classed as functional.
The test system of the next data set is MGC-803. Put plainly: Cytotoxicity against human MGC803 cells at 10 to 20 uM after 72 hrs by MTT assay. The data set is classed as cell-based. As to conditions: mgc-803, 72 h.
In data set [5] the test system is HEK-293T. Put plainly: Potentiation of cisplatin-induced cytotoxicity in human HEK293T/NC cells assessed as fold reduction in cisplatin IC50 at 10 uM after 72 hrs by MTT assay relative to cisplatin. The data set is classed as functional.
For the next data set, the system named is A549. Put plainly: Cytotoxicity against human A549 cells at 10 to 20 uM after 72 hrs by MTT assay. As to conditions: a549, 72 h. It is filed as cell-based.
For another data set, the system named is TE-1. Put plainly: Cytotoxicity against human TE1 cells at 10 to 20 uM after 72 hrs by MTT assay. The data set is classed as cell-based. As to conditions: te-1, 72 h.
Data set [6] has as its system SW620/AD300. Put plainly: Effect on ABCB1 expression in human SW620/AD300 cells at 20 uM up to 96 hrs by Western blot analysis. The data set is classed as functional, cell-based. (In general: Immunoblotting shows a protein as a band on a membrane.)
The target in data set [7] is T1, ATP-dependent translocase ABCB1 (Homo sapiens, UniProt P08183). Put plainly: Binding affinity to ABCB1 in human SW620/AD300 cells assessed as thermal stabilization incubated for 30 mins at 43 to 80 degC by CETSA. As to conditions: 0.5 h. It is filed as cell-based.
T1 sequence (P08183 whole entry): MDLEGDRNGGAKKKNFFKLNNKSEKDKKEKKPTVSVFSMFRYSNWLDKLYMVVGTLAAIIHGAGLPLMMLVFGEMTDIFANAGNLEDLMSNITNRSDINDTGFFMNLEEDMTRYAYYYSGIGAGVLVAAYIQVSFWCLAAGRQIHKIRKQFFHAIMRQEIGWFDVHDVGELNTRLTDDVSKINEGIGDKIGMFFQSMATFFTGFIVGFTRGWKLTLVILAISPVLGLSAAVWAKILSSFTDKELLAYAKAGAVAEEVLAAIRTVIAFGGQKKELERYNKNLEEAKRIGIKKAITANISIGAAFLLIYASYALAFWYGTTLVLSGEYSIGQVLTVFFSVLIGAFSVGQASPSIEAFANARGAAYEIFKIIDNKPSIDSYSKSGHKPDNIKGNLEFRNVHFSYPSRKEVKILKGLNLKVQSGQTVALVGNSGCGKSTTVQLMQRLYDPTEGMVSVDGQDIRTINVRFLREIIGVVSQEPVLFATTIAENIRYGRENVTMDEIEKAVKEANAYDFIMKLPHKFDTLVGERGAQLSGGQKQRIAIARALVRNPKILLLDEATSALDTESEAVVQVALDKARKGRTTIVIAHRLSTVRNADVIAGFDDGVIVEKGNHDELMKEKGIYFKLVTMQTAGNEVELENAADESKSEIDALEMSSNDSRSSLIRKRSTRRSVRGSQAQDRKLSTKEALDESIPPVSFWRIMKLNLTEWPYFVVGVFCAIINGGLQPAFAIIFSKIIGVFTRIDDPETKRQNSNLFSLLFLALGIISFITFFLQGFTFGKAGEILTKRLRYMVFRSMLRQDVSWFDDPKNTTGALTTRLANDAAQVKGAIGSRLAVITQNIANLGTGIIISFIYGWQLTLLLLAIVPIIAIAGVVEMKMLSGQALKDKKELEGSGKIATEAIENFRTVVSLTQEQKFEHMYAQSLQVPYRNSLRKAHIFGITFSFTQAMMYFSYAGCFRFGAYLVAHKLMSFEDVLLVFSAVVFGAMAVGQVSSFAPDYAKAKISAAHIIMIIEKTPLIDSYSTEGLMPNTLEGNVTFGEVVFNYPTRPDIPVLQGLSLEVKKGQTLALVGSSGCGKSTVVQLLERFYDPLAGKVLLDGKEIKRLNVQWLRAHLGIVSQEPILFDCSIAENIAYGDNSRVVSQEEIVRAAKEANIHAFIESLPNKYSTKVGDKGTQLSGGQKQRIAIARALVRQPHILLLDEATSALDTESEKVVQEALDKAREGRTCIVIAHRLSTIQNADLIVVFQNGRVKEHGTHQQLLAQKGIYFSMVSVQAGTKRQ
Data set [8] has as its system SW-620. In words: Potentiation of paclitaxel-induced cytotoxicity in human SW620 cells assessed as fold reduction in paclitaxel IC50 at 20 uM after 72 hrs by MTT assay relative to paclitaxel alone. It is filed as functional.
Data set [9] has as its system HEK-293T. In words: Potentiation of doxorubicin-induced cytotoxicity in human HEK293T/NC cells assessed as fold reduction in doxorubicin IC50 at 20 uM after 72 hrs by MTT assay relative to doxorubicin. The data set is classed as functional.
A further data set concerns ECa-109 cell line. Put plainly: Cytotoxicity against human EC109 cells at 10 to 20 uM after 72 hrs by MTT assay. It is filed as cell-based. As to conditions: eca-109, 72 h.
The test system of data set [10] is SW-620. In words: Potentiation of cisplatin-induced cytotoxicity in human SW620 cells assessed as fold reduction in cisplatin IC50 at 20 uM after 72 hrs by MTT assay relative to cisplatin alone. It is filed as functional.
For data set [11], the system named is SW620/AD300. In words: Effect on ABCB1 expression in human SW620/AD300 cells at 10 to 20 uM by Western blot analysis. The data set is classed as functional, cell-based.
For data set [12], the system named is SW-620. Put plainly: Potentiation of doxorubicin-induced cytotoxicity in human SW620 cells assessed as fold reduction in doxorubicin IC50 at 20 uM after 72 hrs by MTT assay relative to doxorubicin alone. The data set is classed as functional.
Data set [13] has as its system SW-620. Put plainly: Potentiation of paclitaxel-induced cytotoxicity in human SW620 cells assessed as fold reduction in paclitaxel IC50 at 10 uM after 72 hrs by MTT assay relative to paclitaxel alone. The data set is classed as functional.
Another data set relates to SGC-7901. Put plainly: Cytotoxicity against human SGC7901 cells at 10 to 20 uM after 72 hrs by MTT assay. As to conditions: sgc-7901, 72 h. The data set is classed as cell-based.
Data set [14] addresses T1, ATP-dependent translocase ABCB1. In words: Inhibition of ABCB1 in human SW620/AD300 cells assessed as intracellular accumulation of paclitaxel at 10 to 20 uM after 72 hrs by UPLC analysis. It is filed as cell-based.
For data set [15], the system named is SW620/AD300. In words: Effect on subcellular localization of ABCB1 in human SW620/AD300 cells at 10 to 20 uM after 72 hrs by Hoechst 33342 staining-based immunofluorescence assay. It is filed as functional, cell-based.
The test system of data set [16] is HEK-293T. In words: Potentiation of doxorubicin-induced cytotoxicity in human HEK293T/NC cells assessed as fold reduction in doxorubicin IC50 at 10 uM after 72 hrs by MTT assay relative to doxorubicin. It is filed as functional.
In data set [17] the test system is HEK-293T. In words: Potentiation of cisplatin-induced cytotoxicity in human HEK293T/NC cells assessed as fold reduction in cisplatin IC50 at 4 uM after 72 hrs by MTT assay relative to cisplatin. It is filed as functional.
For data set [18], the system named is SW-620. Put plainly: Potentiation of cisplatin-induced cytotoxicity in human SW620 cells assessed as fold reduction in cisplatin IC50 at 4 uM after 72 hrs by MTT assay relative to cisplatin alone. The data set is classed as functional.
The subject of data set [19] is SW-620. Put plainly: Potentiation of doxorubicin-induced cytotoxicity in human SW620 cells assessed as fold reduction in doxorubicin IC50 at 4 uM after 72 hrs by MTT assay relative to doxorubicin alone. The data set is classed as functional.
Data set [20] deals with HEK-293T. Put plainly: Potentiation of doxorubicin-induced cytotoxicity in human HEK293T/NC cells assessed as fold reduction in doxorubicin IC50 at 4 uM after 72 hrs by MTT assay relative to doxorubicin. It is filed as functional.
In data set [21] the test system is HEK-293T. In words: Potentiation of paclitaxel-induced cytotoxicity in human HEK293T/NC cells assessed as fold reduction in paclitaxel IC50 at 4 uM after 72 hrs by MTT assay relative to paclitaxel. The data set is classed as functional.
In data set [22] the test system is SW-620. Put plainly: Potentiation of paclitaxel-induced cytotoxicity in human SW620 cells assessed as fold reduction in paclitaxel IC50 at 4 uM after 72 hrs by MTT assay relative to paclitaxel alone. The data set is classed as functional.

In the case of `O=c1cc(-c2ccccc2)[nH]c2nc(SCc3nc4ccccc4[nH]3)nn12`, the “Ratio IC50” value was determined as 0.87 in the data set with HEK-293T [1]; 0.83 in the data set with HEK-293T [2]; 1.07 in the data set on SW-620 [3]; 1.17 in the data set with SW-620 [4]; 1.04 in the data set with HEK-293T [5]; 0.81 with SW-620 [8]. Besides, the “Ratio IC50” value with HEK-293T [9] came out at 1.08; in the data set with SW-620 [10], 0.97; in the data set with SW-620 [12], 1.14; in the data set on SW-620 [13], 1.2; in the data set with HEK-293T [16], 1.14. The Activity result is listed as “Non-Toxic” in the data set with MGC-803; “Non-Toxic” in the data set with A549; “Non-Toxic” with TE-1; “Active” in data set [7]; “Non-Toxic” with ECa-109 cell line; “Non-Toxic” in the data set on SGC-7901. For the same compound, the result in the data set on SW620/AD300 [6], with SW620/AD300 [11] and in the data set with SW620/AD300 [15] was inactive. For the same compound, the “inhibition (INH)” value in data set [14] is “Active”.

On to `COc1ccc(CCN(C)CCCC(C#N)(c2ccc(OC)c(OC)c2)C(C)C)cc1OC` (configuration not stated), for which the “Ratio IC50” value in the data set on HEK-293T [17] is 0.89; in the data set on SW-620 [18], 1.1; in the data set with SW-620 [19], 1.18; in the data set with HEK-293T [20] it was 1.07; in the data set on HEK-293T [21] it was 0.84; with SW-620 [22], 1.29.
